Results as given in patent US20110268742A1, “PCTP MODULATORS IN THE TREATMENT OF ACNE, OF SEBORRHOEIC DERMATITIS OR OF HYPERSEBORRHOEA” (Galderma Research & Development, priority 2008, published 2011).

Experiments:
[1] = system: PCTP (phosphatidylcholine transfer protein) gene expression; experiment: Expression of PCTP in rat sebaceous gland (epidermal split) after topical PPARgamma agonist, real-time PCR kinetics; assay type: in vivo; details: for PCTP relative induction: topical 1% in acetone, female Fuzzy rats, standardized to 18S, versus carrier group; for PCTP expression in vivo at the level of the sebaceous glands following topical treatment: topical treatment with PPARγ ligand at 1%
Description: Number per batch: 40 (8 animals per group)
Treatment: Route of administration: topical
Compound/batch: PPARgamma agonists: • A: 5-{4-[2-(methylpyridin-2-ylamino)ethoxy]-benzyl}thiazolidine-2,4-dione • B: (2-methoxyethoxymethoxy)naphthalene-2-carboxylic acid [4′-(2,4-dioxothazolidin-5-ylmethyl)biphenyl-3-ylmethyl]methylamide or rosiglitazone • C: (S)-2-ethoxy-3-{4-[6-(3-heptyl-1-methyl-ureido)pyridin-2-yl]phenyl}propionic acid
Method of evaluation: The animals are weighed at the beginning and at the end of the study. Skin biopsies are taken (6 samples of skin excised per rat) in order to analyse the expression of the genes (RNA extraction, reverse transcriptase and real-time PCR). The samples are stored overnight at 4° C. before incubation in 1M sodium bromide (NaBr) for 2 hours at 37° C. After incubation, the samples are separated into epidermis or dermis. The epidermal samples are stored at […]. Under these conditions, the sebaceous glands are in the epidermal split. PCRs are carried out, beginning with the cDNAs originating from the epidermal splits controlling sebaceous glands from control rats or rats treated with a PPARγ agonist; the mRNA is extracted using a column and quantified. The quality of the mRNAs is measured and is represented by the 18S/28S ratio. The results are standardized with respect to 18S, expressed as relative induction versus untreated animals (carrier group). The statistical analysis is obtained using internal software based on a modified Monte Carlo statistical analysis.

[2] = system: PCTP (phosphatidylcholine transfer protein) gene expression; experiment: Expression of PCTP in Fuzzy rat epidermal split after 8 days of topical treatment, Affymetrix transcriptome analysis; assay type: in vivo; details: female Fuzzy rats, topical 1% once a day for 8 days, Affymetrix 1387058_at, control condition 143
Protocol: Fuzzy Rat Epidermal Split Expression Data
The studies are carried out in female Fuzzy rats (Hsd: Fuzzy-fz) ten weeks old at the beginning of the study. The animals are treated at a dose of 1% (PPARg agonist rosiglitazone in solution in acetone) once a day for 8 days. Two hours after the final treatment, the animals are sacrificed by euthanasia and the skin on the back is removed. After incubation in dispase, the epidermis carrying the sebaceous glands is detached from the dermis (epidermal split). After grinding of the samples, the mRNA is prepared using Qiagen columns, in accordance with the supplier's instructions. The material thus prepared is subjected to large-scale transcriptome analysis on an Affymetrix platform. The data are subsequently standardized and, after statistical analysis, the results produced are expressed in arbitrary expression units (see below) accompanied, for each piece of data, by a statistical value for presence of the transcript (presence=1; absence=0).

Compound | PCTP relative induction ([1]; 0 hours) | PCTP relative induction ([1]; 8 hours) | PCTP relative induction ([1]; 24 hours) | PCTP relative induction ([1]; 48 hours) | PCTP relative induction ([1]; 96 hours) | PCTP expression in vivo at the level of the sebaceous glands following topical treatment [1] | Expression after treatment with 1% rosiglitazone [2]
CN(CCOc1ccc(CC2SC(=O)NC2=O)cc1)c1ccccn1 (stereo not shown) [A, 5-{4-[2-(methylpyridin-2-ylamino)ethoxy]-benzyl}thiazolidine-2,4-dione] | 1 | 7.06 | 8.54 | 6.70 | 3.38 | modulated | –
CCCCCCCNC(=O)N(C)c1cccc(-c2ccc(C[C@H](OCC)C(=O)O)cc2)n1 [C, (S)-2-ethoxy-3-{4-[6-(3-heptyl-1-methyl-ureido)pyridin-2-yl]phenyl}propionic acid] | 1 | 1.54 | 3.69 | 3.11 | 1.38 | modulated | –
(2-methoxyethoxymethoxy)naphthalene-2-carboxylic acid [4′-(2,4-dioxothazolidin-5-ylmethyl)biphenyl-3-ylmethyl]methylamide | 1 | 2.57 | 2.79 | 3.37 | 1.15 | modulated | 445 arbitrary expression units
